Key:
[1] = target: IDH1-R132H recombinant protein (Homo sapiens (Human), UniProt O75874, R132H); experiment: IDH1-R132H enzymatic assay (NADPH consumption, diaphorase/resazurin readout); type: biochemical; conditions: inhibition of NADPH consumption, 30 nM IDH1-R132H; read-out: Enzyme IDH1 R132H IC50
Description: (§1) Assays were performed in a 384-well black plate. An aliquot of 250 nL of compound was incubated with 10 μL of 30 nM IDH1-R132H or 10 nM IDH1-R132C recombinant protein in assay buffer (50 mM Tris pH=7.5, 150 mM NaCl, 5 mM MgCl2, 0.1% (w/v) Bovine Serum Albumin, and 0.01% Triton X-100) in each well at 25° C. for 15 minutes. After the plate was centrifuged briefly, an aliquot of 10 μL of 2 mM α-ketoglutarate and 20 μM NADPH solution prepared in assay buffer was then added to each well and the reaction was maintained at 25° C. for 45 minutes. An aliquot of 10 μL of diaphorase solution (0.15 U/mL diaphorase and 30 μM Resazurin in assay buffer) was added to each well. The plate was maintained at 25° C. for 15 minutes and then read on a plate reader with excitation and emission wavelengths at 535 nm and 590 nm, respectively. The IC50 of a given compound was calculated by fitting the dose response curve of inhibition of NADPH consumption at a given concentration with the four parameter logistic equation.

[2] = target: IDH1-R132C recombinant protein (Homo sapiens (Human), UniProt O75874, R132C); experiment: IDH1-R132C enzymatic assay (NADPH consumption, diaphorase/resazurin readout); type: biochemical; conditions: inhibition of NADPH consumption, 10 nM IDH1-R132C; read-out: Enzyme IDH1 R132C IC50
Description: as §1

IDH1-R132H recombinant protein, sequence (O75874 whole entry R132H): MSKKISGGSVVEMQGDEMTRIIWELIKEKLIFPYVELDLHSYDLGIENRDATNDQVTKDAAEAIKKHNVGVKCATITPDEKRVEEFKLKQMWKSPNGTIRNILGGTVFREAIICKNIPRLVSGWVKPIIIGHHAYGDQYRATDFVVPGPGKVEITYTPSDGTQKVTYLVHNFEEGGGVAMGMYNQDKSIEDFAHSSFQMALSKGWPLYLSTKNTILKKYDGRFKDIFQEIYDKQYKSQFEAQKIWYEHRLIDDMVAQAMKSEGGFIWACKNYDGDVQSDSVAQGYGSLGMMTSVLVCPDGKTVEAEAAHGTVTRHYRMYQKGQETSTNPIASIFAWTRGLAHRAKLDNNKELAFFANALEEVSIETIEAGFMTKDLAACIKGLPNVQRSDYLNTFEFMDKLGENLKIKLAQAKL
IDH1-R132C recombinant protein, sequence (O75874 whole entry R132C): as the sequence (O75874 whole entry R132H) above, with H132C counted along it

Row | Compound | IC50 [1] | IC50 [2]
1 | CC(=O)N1CCc2c1ccnc2N[C@@H](C)c1cc2cc(Cl)ccc2[nH]c1=O [Compound I-42, 3-[(1S)-1-({1-acetyl-1H,2H,3H-pyrrolo[3,2-c]pyridin-4-yl}amino)ethyl]-6-chloro-1,2-dihydroquinolin-2-one] | 100 to 1000 nM | 1000 to 10000 nM
2 | CC(=O)N1CCOc2c1ccnc2N[C@@H](C)c1cc2cc(Cl)ccc2[nH]c1=O [Compound I-44, 3-[(1S)-1-({1-acetyl-1H,2H,3H-pyrido[3,4-b][1,4]oxazin-5-yl}amino)ethyl]-6-chloro-1,2-dihydroquinolin-2-one] | 1000 to 10000 nM | > 10000 nM
3 | C[C@H](Nc1ncc2cn[nH]c2n1)c1cc2cc(Cl)ccc2[nH]c1=O [Compound I-45, 6-chloro-3-[(1S)-1-({1H-pyrazolo[3,4-d]pyrimidin-6-yl}amino)ethyl]-1,2-dihydroquinolin-2-one] | 100 to 1000 nM | 1000 to 10000 nM
4 | C[C@H](Nc1ncc2c(n1)N(C)C(=O)OC2)c1cc2cc(Cl)c(OCc3ccccn3)cc2[nH]c1=O [Compound I-48, 6-chloro-3-[(1S)-1-({1-methyl-2-oxo-1H,2H,4H-pyrimido[4,5-d][1,3]oxazin-7-yl}amino)ethyl]-7-(pyridin-2-ylmethoxy)-1,2-dihydroquinolin-2-one] | < 100 nM | < 100 nM
5 | C[C@H](Nc1ncc2c(n1)NC(=O)OC2)c1cc2cc(Cl)ccc2[nH]c1=O [Compound I-49, 6-chloro-3-[(1S)-1-({2-oxo-1H,2H,4H-pyrimido[4,5-d][1,3]oxazin-7-yl}amino)ethyl]-1,2-dihydroquinolin-2-one] | < 100 nM | 100 to 1000 nM
6 | C[C@@H](Nc1ncc2c(n1)N(C)C(=O)OC2)c1cc2cc(Cl)c(F)cc2[nH]c1=O [Compound I-53, 6-chloro-7-fluoro-3-[(1R)-1-({1-methyl-2-oxo-1H,2H,4H-pyrimido[4,5-d][1,3]oxazin-7-yl}amino)ethyl]-1,2-dihydroquinolin-2-one] | 1000 to 10000 nM | > 10000 nM
7 | C[C@H](Nc1ncc2oc(=O)[nH]c2n1)c1cc2cc(Cl)ccc2[nH]c1=O [Compound I-56, 6-chloro-3-[(1S)-1-({2-oxo-2H,3H-[1,3]oxazolo[4,5-d]pyrimidin-5-yl}amino)ethyl]-1,2-dihydroquinolin-2-one] | < 100 nM | 100 to 1000 nM
8 | C[C@H](Nc1ncc2oc(=O)n(C)c2n1)c1cc2cc(Cl)ccc2[nH]c1=O [Compound I-57, 6-chloro-3-[(1S)-1-({3-methyl-2-oxo-2H,3H-[1,3]oxazolo[4,5-d]pyrimidin-5-yl}amino)ethyl]-1,2-dihydroquinolin-2-one] | < 100 nM | 100 to 1000 nM
9 | C[C@H](Nc1ncc2[nH]c(=O)n(C)c2n1)c1cc2cc(Cl)ccc2[nH]c1=O [Compound I-58, 6-chloro-3-[(1S)-1-[(9-methyl-8-oxo-8,9-dihydro-7H-purin-2-yl)amino]ethyl]-1,2-dihydroquinolin-2-one] | 100 to 1000 nM | 1000 to 10000 nM
10 | C[C@H](Nc1ncc2[nH]c(=O)[nH]c2n1)c1cc2cc(Cl)ccc2[nH]c1=O [Compound I-59, 6-chloro-3-[(1S)-1-[(8-oxo-8,9-dihydro-7H-purin-2-yl)amino]ethyl]-1,2-dihydroquinolin-2-one] | 1000 to 10000 nM | 1000 to 10000 nM
11 | C[C@H](Nc1ncc2c(n1)NC(=O)C2)c1cc2cc(Cl)ccc2[nH]c1=O [Compound I-60, 6-chloro-3-[(1S)-1-({6-oxo-5H,6H,7H-pyrrolo[2,3-d]pyrimidin-2-yl}amino)ethyl]-1,2-dihydroquinolin-2-one] | 100 to 1000 nM | 1000 to 10000 nM
12 | C[C@H](Nc1ncc2c(n1)N(C)C(=O)C2)c1cc2cc(Cl)ccc2[nH]c1=O [Compound I-61, 6-chloro-3-[(1S)-1-({7-methyl-6-oxo-5H,6H,7H-pyrrolo[2,3-d]pyrimidin-2-yl}amino)ethyl]-1,2-dihydroquinolin-2-one] | 100 to 1000 nM | 100 to 1000 nM
13 | C[C@H](Nc1ncc2c(n1)NC(=O)CC2)c1cc2cc(Cl)ccc2[nH]c1=O [Compound I-62, 6-chloro-3-[(1S)-1-({7-oxo-5H,6H,7H,8H-pyrido[2,3-d]pyrimidin-2-yl}amino)ethyl]-1,2-dihydroquinolin-2-one] | 1000 to 10000 nM | 1000 to 10000 nM

Now from value to molecule:

Row | IC50 [1] | IC50 [2] | Compound
14 | < 100 nM | < 100 nM | COc1cc2[nH]c(=O)c(C(C)Nc3ncc4c(n3)N(C)C(=O)OC4)cc2cc1Cl (racemic) [Compound I-50, 6-chloro-7-methoxy-3-[1-({1-methyl-2-oxo-1H,2H,4H-pyrimido[4,5-d][1,3]oxazin-7-yl}amino)ethyl]-1,2-dihydroquinolin-2-one]
15 | 100 to 1000 nM | 100 to 1000 nM | O=c1[nH]c2ccc(Cl)cc2cc1CNc1cccc2ocnc12 [Compound I-1, 3-{[(1,3-benzoxazol-4-yl)amino]methyl}-6-chloro-1,2-dihydroquinolin-2-one]
16 | 100 to 1000 nM | > 10000 nM | O=c1ccc2cc(NCc3cc4cc(Cl)ccc4[nH]c3=O)ccc2o1 [Compound I-4, 6-chloro-3-{[(2-oxo-2H-chromen-6-yl)amino]methyl}-1,2-dihydroquinolin-2-one]
17 | 1000 to 10000 nM | – | C[C@H](Nc1nccc2c1CCN2S(C)(=O)=O)c1cc2cc(Cl)ccc2[nH]c1=O [Compound I-43, 6-chloro-3-[(1S)-1-({1-methanesulfonyl-1H,2H,3H-pyrrolo[3,2-c]pyridin-4-yl}amino)ethyl]-1,2-dihydroquinolin-2-one]
18 | < 100 nM | < 100 nM | CC(C)CN1C(=O)OCc2cnc(N[C@@H](C)c3cc4cc(Cl)ccc4[nH]c3=O)nc21 [Compound I-46, 6-chloro-3-[(1S)-1-{[1-(2-methylpropyl)-2-oxo-1H,2H,4H-pyrimido[4,5-d][1,3]oxazin-7-yl]amino}ethyl]-1,2-dihydroquinolin-2-one]
19 | < 100 nM | < 100 nM | C[C@H](Nc1ncc2c(n1)N(C)C(=O)OC2)c1cc2cc(Cl)ccc2[nH]c1=O [Compound I-47, 6-chloro-3-[(1S)-1-({1-methyl-2-oxo-1H,2H,4H-pyrimido[4,5-d][1,3]oxazin-7-yl}amino)ethyl]-1,2-dihydroquinolin-2-one]
20 | < 100 nM | < 100 nM | COc1cc2[nH]c(=O)c([C@H](C)Nc3ncc4c(n3)N(C)C(=O)OC4)cc2cc1Cl [Compound I-51, 6-chloro-7-methoxy-3-[(1S)-1-({1-methyl-2-oxo-1H,2H,4H-pyrimido[4,5-d][1,3]oxazin-7-yl}amino)ethyl]-1,2-dihydroquinolin-2-one]
21 | 100 to 1000 nM | 1000 to 10000 nM | COc1cc2[nH]c(=O)c([C@@H](C)Nc3ncc4c(n3)N(C)C(=O)OC4)cc2cc1Cl [Compound I-52, 6-chloro-7-methoxy-3-[(1R)-1-({1-methyl-2-oxo-1H,2H,4H-pyrimido[4,5-d][1,3]oxazin-7-yl}amino)ethyl]-1,2-dihydroquinolin-2-one]
22 | < 100 nM | < 100 nM | CC(C)Cn1c(=O)oc2cnc(N[C@@H](C)c3cc4cc(Cl)ccc4[nH]c3=O)nc21 [Compound I-55, 6-chloro-3-[(1S)-1-{[3-(2-methylpropyl)-2-oxo-2H,3H-[1,3]oxazolo[4,5-d]pyrimidin-5-yl]amino}ethyl]-1,2-dihydroquinolin-2-one]
